Reference: paper PMC11212140, “Molecular Bidents with Two Electrophilic Warheads as a New Pharmacological Modality” (ACS Central Science, 2024)
Read-outs that look alike come from different tables or passages of the source.

Assays:
LKB1 = tested on: T1, LKB1; assay: KiNativ profiling in H3255 cells; format: cell-based, human; conditions: 2.5 µM; Lys2; DIKPGNLLLTTGGTLK
T1 construct: purchased ActivX Biosciences (KiNativ)

NEK3 = tested on: T2, NEK3; assay: KiNativ profiling in H3255 cells; format: cell-based, human; conditions: 2.5 µM; Activation Loop; SKNIFLTQNGK
T2 construct: purchased ActivX Biosciences (KiNativ)
Procedure, shortened: (§1)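 Live-cell treatment: 2.5 μM ZNL-0056 or DMSO, 2 h, H3255, 6.5x10^6 cells/condition; cold PBS + protease/phosphatase inhibitors; pellet 1350 g, 4 ℃, 5 min; flash-freeze in LN2; KiNativ at ActivX.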

MAP2K1, MAP2K2 = assay: KiNativ profiling in H3255 cells; format: cell-based, human; conditions: 2.5 µM
Procedure, shortened: as §1

TNK1 = tested on: T3, TNK1; assay: KiNativ profiling in H3255 cells; format: cell-based, human; conditions: 2.5 µM; Lys1; SVPVAVKSLR
T3 construct: purchased ActivX Biosciences (KiNativ)
Procedure, shortened: as §1

PIK3C2B = tested on: T4, PIK3C2B; assay: KiNativ profiling in H3255 cells; format: cell-based, human; conditions: 2.5 µM; ATP; VIFKCGDDLRQDMLTLQMIR
T4 construct: purchased ActivX Biosciences (KiNativ)
Procedure, shortened: as §1

NEK6, NEK7 = assay: KiNativ profiling in H3255 cells; format: cell-based, human; conditions: 2.5 µM; Lys2; DIKPANVFITATGVVK
Procedure, shortened: as §1

SRPK2 = tested on: T5, SRPK2; assay: KiNativ profiling in H3255 cells; format: cell-based, human; conditions: 2.5 µM; Lys2; IIHTDIKPENILMCVDDAYVR
T5 construct: purchased ActivX Biosciences (KiNativ)
Procedure, shortened: as §1

TAK1 = tested on: T6, TAK1; assay: KiNativ profiling in H3255 cells; format: cell-based, human; conditions: 2.5 µM; Lys2; DLKPPNLLLVAGGTVLK
T6 construct: purchased ActivX Biosciences (KiNativ)
Procedure, shortened: as §1

FAK = tested on: T7, FAK; assay: KiNativ profiling in H3255 cells; format: cell-based, human; conditions: 2.5 µM
T7 construct: purchased ActivX Biosciences (KiNativ)
Procedure, shortened: as §1

LYN = tested on: T8, LYN; assay: KiNativ profiling in H3255 cells; format: cell-based, human; conditions: 2.5 µM
T8 construct: purchased ActivX Biosciences (KiNativ)
Procedure, shortened: as §1

MAP2K4 = tested on: T9, MAP2K4; assay: KiNativ profiling in H3255 cells; format: cell-based, human; conditions: 2.5 µM
T9 construct: purchased ActivX Biosciences (KiNativ)
Procedure, shortened: as §1

MELK = tested on: T10, MELK; assay: KiNativ profiling in H3255 cells; format: cell-based, human; conditions: 2.5 µM; Lys2; DLKPENLLFDEYHK
T10 construct: purchased ActivX Biosciences (KiNativ)
Procedure, shortened: as §1

PFTAIRE1 = tested on: T11, PFTAIRE1; assay: KiNativ profiling in H3255 cells; format: cell-based, human; conditions: 2.5 µM; Lys1; LVALKVIR
T11 construct: purchased ActivX Biosciences (KiNativ)
Procedure, shortened: as §1

CaMK2g = tested on: T12, CaMK2g; assay: KiNativ profiling in H3255 cells; format: cell-based, human; conditions: 2.5 µM; Lys1; TSTQEYAAKIINTK
T12 construct: purchased ActivX Biosciences (KiNativ)
Procedure, shortened: as §1

CK2a1 = tested on: T13, CK2a1; assay: KiNativ profiling in H3255 cells; format: cell-based, human; conditions: 2.5 µM; Protein Kinase Domain; GGPNIITLADIVKDPVSR
T13 construct: purchased ActivX Biosciences (KiNativ)
Procedure, shortened: as §1

PEK = tested on: T14, PEK; assay: KiNativ profiling in H3255 cells; format: cell-based, human; conditions: 2.5 µM; Lys2; DLKPSNIFFTMDDVVK
T14 construct: purchased ActivX Biosciences (KiNativ)
Procedure, shortened: as §1

ULK1 = tested on: T15, ULK1; assay: KiNativ profiling in H3255 cells; format: cell-based, human; conditions: 2.5 µM; Lys2; DLKPQNILLSNPAGR
T15 construct: purchased ActivX Biosciences (KiNativ)
Procedure, shortened: as §1

NDR1, NDR2 = assay: KiNativ profiling in H3255 cells; format: cell-based, human; conditions: 2.5 µM; Activation Loop; LSDFGLCTGLKK
Procedure, shortened: as §1

YES = tested on: T16, YES; assay: KiNativ profiling in H3255 cells; format: cell-based, human; conditions: 2.5 µM; Lys1; VAIKTLKPGTMMPEAFLQEAQIMK
T16 construct: purchased ActivX Biosciences (KiNativ)
Procedure, shortened: as §1

CLK3 = tested on: T17, CLK3; assay: KiNativ profiling in H3255 cells; format: cell-based, human; conditions: 2.5 µM
T17 construct: purchased ActivX Biosciences (KiNativ)
Procedure, shortened: as §1

NEK1 = tested on: T18, NEK1; assay: KiNativ profiling in H3255 cells; format: cell-based, human; conditions: 2.5 µM; Lys2; DIKSQNIFLTK
T18 construct: purchased ActivX Biosciences (KiNativ)
Procedure, shortened: as §1

MAP3K1 = tested on: T19, MAP3K1; assay: KiNativ profiling in H3255 cells; format: cell-based, human; conditions: 2.5 µM; Lys2; DVKGANLLIDSTGQR
T19 construct: purchased ActivX Biosciences (KiNativ)
Procedure, shortened: as §1

FER = tested on: T20, FER; assay: KiNativ profiling in H3255 cells; format: cell-based, human; conditions: 2.5 µM
T20 construct: purchased ActivX Biosciences (KiNativ)
Procedure, shortened: as §1

MSK2 domain1 = tested on: T21, MSK2 domain1; assay: KiNativ profiling in H3255 cells; format: cell-based, human; conditions: 2.5 µM
T21 construct: MSK2 domain1; purchased ActivX Biosciences (KiNativ)
Procedure, shortened: as §1

p70S6K = tested on: T22, p70S6K; assay: KiNativ profiling in H3255 cells; format: cell-based, human; conditions: 2.5 µM
T22 construct: purchased ActivX Biosciences (KiNativ)
Procedure, shortened: as §1

[1] = tested on: EGFR^L858R/C797S Ba/F3 cells; assay: Antiproliferation assay (CellTiter-Glo); format: cell-based
From the text: (1 picture or pasted object on this page, not shown here)
protease and phosphatase inhibitors.
Protein expression and purification

JAK1 domain2 = tested on: T23, JAK1 domain2; assay: KiNativ profiling in H3255 cells; format: cell-based, human; conditions: 2.5 µM
T23 construct: JAK1 domain2; purchased ActivX Biosciences (KiNativ)

[2] = Lys1, CIGEGQFGDVHQGIYMSPENPALAVAIKTCK
[3] = Activation Loop, EGAKFPIKWTAPEAINFGCFTIK
[4] = ATP Loop, YEIVGNLGEGTFGKVVECLDHAR
[5] = Lys2, FLHENQLTHTDLKPENILFVNSEFETLYNEHK
[6] = Activation Loop, QEDGGVYSSSGLKQIPIK
[7] = Activation Loop, IGDFGLTKAIETDKEYYTVK
[8] = Lys1, YDPEGDNTGEQVAVKSLKPESGGNHIADLKK

SMILES | Inhibition (LKB1) | Inhibition (NEK3) | Inhibition (MAP2K1, MAP2K2; Lys1, KLIHLEIKPAIR) | Inhibition (MAP2K1, MAP2K2; Lys2, DVKPSNILVNSR) | Inhibition (TNK1) | Inhibition (PIK3C2B) | Inhibition (NEK6, NEK7) | Inhibition (SRPK2) | Inhibition (TAK1) | Inhibition (FAK; Activation Loop, YMEDSTYYKASK) | Inhibition (FAK; [2]) | Inhibition (LYN; [3]) | Inhibition (LYN; Lys1, VAVKTLKPGTMSVQAFLEEANLMK) | Inhibition (MAP2K4; Lys1, MVHKPSGQIMAVKR) | Inhibition (MAP2K4; Lys2, DIKPSNILLDR) | Inhibition (MELK) | Inhibition (PFTAIRE1) | Inhibition (CaMK2g) | Inhibition (CK2a1) | Inhibition (PEK) | further results
C=CC(=O)Nc1cc(C(=O)Nc2nc3cccc(C)c3n2[C@@H]2CCCCN(C(=O)C=C)C2)cs1 [ZNL-0056] | 0.756% | -5.3% | 9.8% | -6.7% | 8.0% | -9.6% | 0.45% | 10.0% | 10.2% | -16.1% | -40.2% | -13.3% | -8.7% | 5.7% | 2.6% | 23.0% | 20.8% | -27.3% | 6.3% | -15.1% | Inhibition (ULK1): 3.5%; Inhibition (NDR1, NDR2): -7.6%; Inhibition (YES): -13.4%; Inhibition (CLK3; [4]): 10.0%; Inhibition (CLK3; [5]): 13.8%; Inhibition (NEK1): -5.2%; Inhibition (MAP3K1): -17.1%; Inhibition (FER; [6]): -11.1%; Inhibition (FER; Lys1, TSVAVKTCKEDLPQELK): -6.4%; Inhibition (MSK2 domain1; Lys1, LYAMKVLR): -2.6%; Inhibition (MSK2 domain1; Lys2, DLKLENVLLDSEGHIVLTDFGLSK): 18.7%; Inhibition (p70S6K; Lys1, IFAMKVLK): 23.2%; Inhibition (p70S6K; Lys2, DLKPENIMLNHQGHVK): -10.8%; activity loss in cells dependent on EGFR^C797S for growth ([1]; vs EGFR^L858R Ba/F3): 50 fold; Inhibition (JAK1 domain2; [7]): 4.7%; Inhibition (JAK1 domain2; [8]): 4.4%
C=CC(=O)Nc1cc(Nc2nccc(-c3cn(C)c4ccccc34)n2)c(OC)cc1N(C)CCN(C)C [Osimertinib, osimertinib, reference compound] | -3.9% | -0.9% | -64.7% | -10.5% | 58.2% | 1.3% | -8.8% | -2.3% | -9.8% | -25.6% | 16.5% | 7.2% | -3.5% | 12.0% | 30.7% | -15.3% | 2.2% | -34.8% | -0.558% | 7.8% | Inhibition (ULK1): -9.0%; Inhibition (NDR1, NDR2): -22.1%; Inhibition (YES): 19.6%; Inhibition (CLK3; [4]): -8.7%; Inhibition (CLK3; [5]): -18.4%; Inhibition (NEK1): -34.8%; Inhibition (MAP3K1): 8.4%; Inhibition (FER; [6]): 28.7%; Inhibition (FER; Lys1, TSVAVKTCKEDLPQELK): -15.4%; Inhibition (MSK2 domain1; Lys1, LYAMKVLR): -36.1%; Inhibition (MSK2 domain1; Lys2, DLKLENVLLDSEGHIVLTDFGLSK): 5.0%; Inhibition (p70S6K; Lys1, IFAMKVLK): -2.7%; Inhibition (p70S6K; Lys2, DLKPENIMLNHQGHVK): -39.3%; activity loss in cells dependent on EGFR^C797S for growth [1]: 300 fold; Inhibition (JAK1 domain2; [7]): -24.5%; Inhibition (JAK1 domain2; [8]): -22.2%
